Experiments:
[1] = test system: Scenedesmus acutus; experiment: Growth inhibition of Scenedesmus acutus assessed as packed cell volume per ml of algal culture volume after 16 hr (reference value: 3.8 ul pcv/ml); format: functional
[2] = test system: Scenedesmus acutus; experiment: Phytotoxicity against Scenedesmus acutus assessed as inhibition of chlorophyll content after 16 hr by spectrophotometry relative to untreated control; format: functional

SMILES | Activity [1] | inhibition (INH) [2]
Cc1nn(-c2cc(OC(C)C)c(Cl)cc2F)c(C)c1C | 3.9 uL/ml | 11.1%
C#CCOc1cc(-n2nc(C)c([N+](=O)[O-])c2C)c(F)cc1Cl | 2.5 uL/ml | 46%
C#CCOc1cc(N2C(=O)C3=C(CCCC3)C2=O)c(F)cc1Cl | 2.4 uL/ml | 73.6%
CCOc1cc(Oc2ccc(C(F)(F)F)cc2Cl)ccc1[N+](=O)[O-] [OXYFLUORFEN] | 1.4 uL/ml | 92.2%
C/C=C/COc1cc(-n2nc(C)c(C)c2C)c(F)cc1Cl | 3.5 uL/ml | 17.2%
Fc1cc(Cl)c(OC(F)F)cc1-n1nc2c(c1Cl)CCCC2 | 1.5 uL/ml | 89.7%
Cc1cc(C)n(-c2ccc(Cl)cc2F)n1 | 4.1 uL/ml | 0%
O=C1C2=C(CCCC2)C(=O)N1c1ccc(Cl)cc1 [CHLOROPHTHALIUM] | 2.5 uL/ml | 72.3%
C#CCOc1cc(-n2nc(C)c(Cl)c2C)c(Cl)cc1Cl | 4 uL/ml | 0%
C#CCOc1cc(-n2nc(C)c(Cl)c2C)c(Cl)cc1F | 3.1 uL/ml | 26.7%
N#Cc1cnn(-c2c(Cl)cc(C(F)(F)F)cc2Cl)c1N | 2 uL/ml | 61%
C#CCOc1cc(-n2nc(CC)c(Cl)c2CC)c(F)cc1Cl | 2.7 uL/ml | 30.3%
Cc1nn(-c2cc(OC(C)C)c(Cl)cc2F)c(C)c1[N+](=O)[O-] | 3.5 uL/ml | 17.7%
C#CCOc1cc(-n2nc(C)c(Cl)c2C)c(F)cc1Cl | 2.7 uL/ml | 38.5%
COc1cc(-n2nc(C)c(C)c2C)c(F)cc1Cl | 4.1 uL/ml | 0%

Reference: ChEMBL document CHEMBL3045138, “Peroxidizing Phytotoxic Activity of Pyrazoles” (J Pestic Sci, 1995)
